# Measured values: patent publication US8202906B2, “Use of docosahexanoic acid as active substance for the treatment of lipodystrophy” (Proyecto Empresarial Brudy, S.L., priority 2002, dated 2012)
# “And” between values parts separate entries of the source, which are not always exact repeats. Equal values may be shown once.
# How the values were obtained:
# [1] = test system: HIV-infected patients under HAART regimen and presenting lipodystrophy syndrome; experiment: Example 1: 3 months' administration to HIV-infected patients under HAART with lipodystrophy syndrome; type: in vivo, human; design: LDL / VLDL / COL. / TG / HDL: unit not given here; settings: 4 grams/day
# Description: Four HIV-infected patients under HAART regimen and presenting lipodystrophy syndrome were administered 4 grams/day of a tuna oil with a DHA content of 70%. After three months' administration of DHA to said patients, the following discoveries were made, even taking account of the short period of administration: • 1. […] Mean reduction of 56% in the plasma triglycerides number. • 3. Mean reduction of 25% in the total plasma cholesterol number. • 4. Mean increase of 9% in the plasma HDL cholesterol number. • 5. Mean reduction of 18% in the plasma LDL cholesterol number.
# [2] = test system: patients treated with DHA (lipodystrophy); experiment: Example 2: 300-day monitoring of the four patients treated with DHA; type: in vivo, human; design: COL. / VLDL / TG / HDL / LDL: unit not given here; settings: for COL. / HDL / LDL / TG / VLDL: individual patients 1-4
# Description: From the four patients treated with DHA at elevated dosages (1.5 g/day), all of them have been monitored for 300 days and, although notable fluctuations are observed, especially regarding to the triglicerids (see Table 2), after 300 days of monitoring, the reduction's mean in the number of triglycerids with respect to the basal level is 66% and for the cholesterol is 28.0%.
# All patients have improved their fat redistribution, from the point of view subjective and according to the skill's criterion.
# [3] = 3 months, mean of four patients
# [4] = after 3 months of treatment, individual patients 1-4
# [5] = 1.5 g/day, after 300 days of monitoring, four patients
compound,measurement,setting,value
"CC/C=C\C/C=C\C/C=C\C/C=C\C/C=C\C/C=C\CCC(=O)O [DHA, docosahexaenoic acid]",Mean increase in the plasma HDL cholesterol number,[1]; [3],9%
same,Mean reduction in the plasma LDL cholesterol number,[1]; [3],18%
same,Mean reduction in the plasma triglycerides number,[1]; [3],56%
same,Mean reduction in the total plasma cholesterol number,[1]; [3],25%
same,COL.,[1]; [4],5.46 and 9.48 and 3.82 and 9.9
same,HDL,[1]; [4],1.57 and 0.91 and 1.05 and 0.98
same,LDL,[1]; [4],3.43 and 3.35 and 1.97 and 6.67
same,TG,[1]; [4],1 and 10.66 and 1.73 and 3.41
same,VLDL,[1]; [4],0.46 and 3.74 and 0.8 and 1.82
same,drop of HDL cholesterol,[2]; [5],11.6%
same,reduction's mean in the cholesterol with respect to the basal level,[2]; [5],28.0%
same,reduction's mean in the number of triglycerids with respect to the basal level,[2]; [5],66%
same,COL.,[2]; 15 days of treatment,6.37 and 9.74 and 3.92 and 8.73
same,HDL,[2]; 15 days of treatment,1.7 and 0.98 and 1.05 and 1.03
same,LDL,[2]; 15 days of treatment,4.14 and 6.07 and 1.86 and 5.35
same,TG,[2]; 15 days of treatment,1.16 and 5.98 and 3.11 and 5.18
same,VLDL,[2]; 15 days of treatment,0.53 and 2.61 and 1.01 and 2.35
same,COL.,[2]; 30 days of treatment,6.16 and 8.4 and 4.07 and 8.5
same,HDL,[2]; 30 days of treatment,1.79 and 0.86 and 1.06 and 1.16
same,LDL,[2]; 30 days of treatment,3.7 and 4.3 and 2.0 and 5.0
same,TG,[2]; 30 days of treatment,1.35 and 6.9 and 3.09 and 5.74
same,VLDL,[2]; 30 days of treatment,0.62 and 3.18 and 0.97 and 2.26
same,COL.,[2]; 60 days of treatment,5.46 and 9.48 and 3.82 and 9.9
same,HDL,[2]; 60 days of treatment,1.57 and 0.91 and 1.05 and 0.98
same,LDL,[2]; 60 days of treatment,3.43 and 3.35 and 1.97 and 6.67
same,TG,[2]; 60 days of treatment,1 and 10.66 and 1.73 and 3.41
same,VLDL,[2]; 60 days of treatment,0.46 and 3.74 and 0.8 and 1.82
same,COL.,[2]; 120 days of treatment,5.49 and 8.24 and 3.47 and 13.63
same,HDL,[2]; 120 days of treatment,1.56 and 1.08 and 1.16 and 0.7
same,LDL,[2]; 120 days of treatment,3.26 and 4.6 and 1.61 and 1.46
same,TG,[2]; 120 days of treatment,1.45 and 6.36 and 1.51 and 31.7
same,VLDL,[2]; 120 days of treatment,0.67 and 2.56 and 0.7 and 9.67
same,COL.,[2]; 180 days of treatment,6.15 and 9.64 and 3.76 and 13.21
same,HDL,[2]; 180 days of treatment,1.56 and 1.04 and 0.94 and 1.48
same,LDL,[2]; 180 days of treatment,3.38 and 2.3 and 1.5 and 2.09
same,TG,[2]; 180 days of treatment,2.63 and 15.75 and 2.87 and 16.37
same,VLDL,[2]; 180 days of treatment,1.21 and 4.38 and 132 and 3.97
same,COL.,[2]; 240 days of treatment,5.7 and 8.1 and 4.04 and 5.33
same,HDL,[2]; 240 days of treatment,1.67 and 0.98 and 1.09 and 1.17
same,LDL,[2]; 240 days of treatment,3.3 and 4.93 and 2.1 and 3.16
same,TG,[2]; 240 days of treatment,1.59 and 5.36 and 1.85 and 2.18
same,VLDL,[2]; 240 days of treatment,0.73 and 2.12 and 0.85 and 1
same,COL.,[2]; 300 days of treatment,6.01 and 9.3 and 4.34 and 4.27
same,HDL,[2]; 300 days of treatment,1.23 and 1.08 and 0.89 and 1.22
same,LDL,[2]; 300 days of treatment,4.06 and 5.31 and 2.7 and 2.42
same,TG,[2]; 300 days of treatment,1.57 and 7.21 and 1.62 and 1.36
same,VLDL,[2]; 300 days of treatment,0.72 and 2.92 and 0.75 and 0.63
